Data as given in patent publication US7402548B2, “Benzoxazole compounds, process for producing the same and herbicides” (Kyoyu Agri Co., Ltd., priority 2000, dated 2008).

Legend:
blackgrass [1] = test: Soil treatment test for upland field; format: in vivo, Alopecurus aegualis; parameters: key: 0 = normal development, 5 = all killed; conditions: 500 g/ha, 3 weeks, glass house 25° C.
Method in brief: (§1)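 Using a pre-emergence soil application at 500 g/ha, treated pots were held 3 weeks in a glass house averaging 25° C. Injury was graded on a 0–5 scale against non-treated pots; "-" marks entries not investigated.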

Large crabgrass [2] = test: Foliar spread test for upland field; format: in vivo, Digitaria adscendens; parameters: key: 0 = normal development, 5 = all killed (6 ranks vs. untreated); conditions: foliar spray, 500 ppm, 3 weeks, glass house 25° C.
Method in brief: (§2)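 Scores on a 0–5 scale (0 normal development, 5 all killed), relative to untreated controls, were taken 3 weeks post-treatment in a 25 °C glass house. Treatment was a uniform foliar spray at 500 ppm (0.5% surfactant) onto roughly 2-week-old soil-grown plants.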

barnyard grass = test: Soil treatment test for upland field; format: in vivo, Eschinochloa crusgalli; parameters: key: 0 = normal development, 5 = all killed; conditions: 500 g/ha, 3 weeks, glass house 25° C.
Method in brief: as §1

wheat [3] = test: Foliar spread test for upland field; format: in vivo; parameters: key: 0 = normal development, 5 = all killed (6 ranks vs. untreated); conditions: foliar spray, 500 ppm, 3 weeks, glass house 25° C.
Method in brief: as §2

sugar beat [4] = test: Foliar spread test for upland field; format: in vivo; parameters: key: 0 = normal development, 5 = all killed (6 ranks vs. untreated); conditions: foliar spray, 500 ppm, 3 weeks, glass house 25° C.
Method in brief: as §2

corn [5] = test: Foliar spread test for upland field; format: in vivo; parameters: key: 0 = normal development, 5 = all killed (6 ranks vs. untreated); conditions: foliar spray, 500 ppm, 3 weeks, glass house 25° C.
Method in brief: as §2

solgum [6] = test: Foliar spread test for upland field; format: in vivo; parameters: key: 0 = normal development, 5 = all killed (6 ranks vs. untreated); conditions: foliar spray, 500 ppm, 3 weeks, glass house 25° C.
Method in brief: as §2

soybean = test: Foliar spread test for upland field; format: in vivo; parameters: key: 0 = normal development, 5 = all killed (6 ranks vs. untreated); conditions: foliar spray, 500 ppm, 3 weeks, glass house 25° C.
Method in brief: as §2

cotton [7] = test: Foliar spread test for upland field; format: in vivo; parameters: key: 0 = normal development, 5 = all killed (6 ranks vs. untreated); conditions: foliar spray, 500 ppm, 3 weeks, glass house 25° C.
Method in brief: as §2

velvetleaf [8] = test: Foliar spread test for upland field; format: in vivo, Abutilon theophrasti; parameters: key: 0 = normal development, 5 = all killed (6 ranks vs. untreated); conditions: foliar spray, 500 ppm, 3 weeks, glass house 25° C.
Method in brief: as §2

barnyardgrjass = test: Foliar spread test for upland field; format: in vivo, Eschinochloa crusgalli; parameters: key: 0 = normal development, 5 = all killed (6 ranks vs. untreated); conditions: foliar spray, 500 ppm, 3 weeks, glass house 25° C.
Method in brief: as §2

livid amaranth [9] = test: Foliar spread test for upland field; format: in vivo, Amaranthus lividus; parameters: key: 0 = normal development, 5 = all killed (6 ranks vs. untreated); conditions: foliar spray, 500 ppm, 3 weeks, glass house 25° C.
Method in brief: as §2

morning glory [10] = test: Soil treatment test for upland field; format: in vivo, Ipomoea spps.; parameters: key: 0 = normal development, 5 = all killed; conditions: 500 g/ha, 3 weeks, glass house 25° C.
Method in brief: as §1

wheat [11] = test: Soil treatment test for upland field; format: in vivo; parameters: key: 0 = normal development, 5 = all killed; conditions: 500 g/ha, 3 weeks, glass house 25° C.
Method in brief: as §1

sugar beat [12] = test: Soil treatment test for upland field; format: in vivo; parameters: key: 0 = normal development, 5 = all killed; conditions: 500 g/ha, 3 weeks, glass house 25° C.
Method in brief: as §1

corn [13] = test: Soil treatment test for upland field; format: in vivo; parameters: key: 0 = normal development, 5 = all killed; conditions: 500 g/ha, 3 weeks, glass house 25° C.
Method in brief: as §1

solgum [14] = test: Soil treatment test for upland field; format: in vivo; parameters: key: 0 = normal development, 5 = all killed; conditions: 500 g/ha, 3 weeks, glass house 25° C.
Method in brief: as §1

annual bluegrass [15] = test: Foliar spread test for upland field; format: in vivo, Poa annua; parameters: key: 0 = normal development, 5 = all killed (6 ranks vs. untreated); conditions: foliar spray, 500 ppm, 3 weeks, glass house 25° C.
Method in brief: as §2

morning glory [16] = test: Foliar spread test for upland field; format: in vivo, Ipomoea spps.; parameters: key: 0 = normal development, 5 = all killed (6 ranks vs. untreated); conditions: foliar spray, 500 ppm, 3 weeks, glass house 25° C.
Method in brief: as §2

green foxtail [17] = test: Soil treatment test for upland field; format: in vivo, Setaria viridis; parameters: key: 0 = normal development, 5 = all killed; conditions: 500 g/ha, 3 weeks, glass house 25° C.
Method in brief: as §1

annual bluegrass [18] = test: Soil treatment test for upland field; format: in vivo, Poa annua; parameters: key: 0 = normal development, 5 = all killed; conditions: 500 g/ha, 3 weeks, glass house 25° C.
Method in brief: as §1

common lambsquarters [19] = test: Foliar spread test for upland field; format: in vivo, Chenopodium album; parameters: key: 0 = normal development, 5 = all killed (6 ranks vs. untreated); conditions: foliar spray, 500 ppm, 3 weeks, glass house 25° C.
Method in brief: as §2

blackgrass [20] = test: Foliar spread test for upland field; format: in vivo, Alopecurus aegualis; parameters: key: 0 = normal development, 5 = all killed (6 ranks vs. untreated); conditions: foliar spray, 500 ppm, 3 weeks, glass house 25° C.
Method in brief: as §2

green foxtail [21] = test: Foliar spread test for upland field; format: in vivo, Setaria viridis; parameters: key: 0 = normal development, 5 = all killed (6 ranks vs. untreated); conditions: foliar spray, 500 ppm, 3 weeks, glass house 25° C.
Method in brief: as §2

cotton [22] = test: Soil treatment test for upland field; format: in vivo; conditions: 500 g/ha, 3 weeks, glass house 25° C.
Protocol: The herbicidal effects are evaluated according to the following 6 ranks as compared with non-treated district. (0: normal development, 1: Less damaged, 2: Slightly damaged, 3: Moderately damaged, 4: Severely damaged, 5: All killed). Incidentally, “-” in the column means not investigated.
Wagner pots, each having an area of 1/5000 are, were packed with Ube soil (alluvial soil), and then each seed of corn, soybean, cotton, wheat, solgum, sugar beat, Large crabgrass, barnyard grass, green foxtail, blackgrass, annual bluegrass, common lambsquarters, livid amaranth, velvetleaf, morning glory, common Cocklebur (Xanthium strumarium) and sicklepod (Cassia obtusifolia) were planted and covered with soil.
Each wettable powder of the desired compounds (I) shown in Tables 1 to 21, 24, 25, 28 and 29 prepared in accordance with Example 2 was diluted with water containing a surfactant (0.05%) and uniformly sprayed on the surface of each soil so that an effective concentration of the compound (I) in each herbicide became 500 g/ha.
These plants were controlled in a glass house at an average temperature of 25° C. for 3 weeks, and then herbicidal effects thereof were investigated.
The herbicidal effects were evaluated according to the evaluation method described in the above (1).

Large crabgrass [23] = test: Soil treatment test for upland field; format: in vivo, Digitaria adscendens; parameters: key: 0 = normal development, 5 = all killed; conditions: 500 g/ha, 3 weeks, glass house 25° C.
Method in brief: as §1

velvetleaf [24] = test: Soil treatment test for upland field; format: in vivo, Abutilon theophrasti; parameters: key: 0 = normal development, 5 = all killed; conditions: 500 g/ha, 3 weeks, glass house 25° C.
Method in brief: as §1

livid amaranth [25] = test: Soil treatment test for upland field; format: in vivo, Amaranthus lividus; parameters: key: 0 = normal development, 5 = all killed; conditions: 500 g/ha, 3 weeks, glass house 25° C.
Method in brief: as §1

common lambsquarters [26] = test: Soil treatment test for upland field; format: in vivo, Chenopodium album; parameters: key: 0 = normal development, 5 = all killed; conditions: 500 g/ha, 3 weeks, glass house 25° C.
Method in brief: as §1

CCC(F)(Cc1ccc(F)c(C(F)(F)F)c1)c1nc2cc(Cl)ccc2o1 (stereo not drawn) [I-d-13, 1-(5-chlorobenzoxazol-2-yl)-1-(4-fluoro-3-trifluoromethylbenzyl)propyl fluoride]
Effects Blackgrass (blackgrass [1]): 4
Effects Large crabgrass (Large crabgrass [2]): 2
Effects Barnyardgrass (barnyard grass): 2
Effects Wheat (wheat [3]): 1
Effects Sugar beat (sugar beat [4]): 5
Effects Corn (corn [5]): 2
Effects Solgum (solgum [6]): 1
Effects Soybean (soybean): 5
Effects Sotton (cotton [7]): 5
Effects Velvetleaf (velvetleaf [8]): 4
Effects Barnyardgrass (barnyardgrjass): 1
Effects Livid amaranth (livid amaranth [9]): 5
Effects Morning glory (morning glory [10]): 1
Effects Wheat (wheat [11]): 0
Effects Sugar beat (sugar beat [12]): 5
Effects Corn (corn [13]): 0
Effects Solgum (solgum [14]): 0
Effects Annual bluegrass (annual bluegrass [15]): 1
Effects Morning glory (morning glory [16]): 5
Effects Green foxtail (green foxtail [17]): 5
Effects Annual bluegrass (annual bluegrass [18]): 5
Effects Common lambsquarters (common lambsquarters [19]): 5
Effects Blackgrass (blackgrass [20]): 1
Effects Green foxtail (green foxtail [21]): 2
Effects Sotton (cotton [22]): 0
Effects Large crabgrass (Large crabgrass [23]): 5
Effects Velvetleaf (velvetleaf [24]): 5
Effects Livid amaranth (livid amaranth [25]): 5
Effects Common lambsquarters (common lambsquarters [26]): 5

CCC(O)(Cc1ccc(F)c(C(F)(F)F)c1)c1nc2cc(Cl)ccc2o1 (stereo not drawn) [I-d-11, 1-(5-chlorobenzoxazol-2-yl)-1-(4-fluoro-3-trifluoromethylbenzyl)propanol]
melting point: 90 to 93 °C
